These results are taken from patent US9650390B2, “Water-soluble taxane derivatives and uses thereof” (priority 2014, dated 2017).

The nature of data set [1]: In vitro dissociation in blood plasma of rat. It counts as in vitro ADME, SD rats. The note with it: fresh SD rat plasma, 37° C.; for Sampling time/Dissociation percent (%) 2 min: 2 min incubation; for Sampling time/Dissociation percent (%) 5 min: 5 min incubation; for Sampling time/Dissociation percent (%) 10 min: 10 min incubation. The procedure: The obtained water soluble taxane derivatives of the following formulae were formulated as 0.2 mg/ml aqueous solutions. […] After 2 min, 5 min and 10 min of incubation, 0.2 ml of solutions were respectively taken from each of the samples, and added to acetonitrile (0.4 ml) cooled to −20° C. for precipitation of protein.

Data set [2] concerns human ovarian cancer SK-OV-3. The note with it: 24 mg/kg, D0-4 IV; for Body weight change (%) D4: nude mice.
From the text: Purpose: to evaluate and compare the inhibitory activity of the water soluble paclitaxel derivatives, paclitaxel and Abraxane® on subcutaneously xenografted tumor of human ovarian cancer SK-OV-3 in nude mice.
Human ovarian cancer SK-OV-3 cells were subcutaneously inoculated to nude mice. After the tumor volume reached 100-150 mm^3, the animals were randomly divided into groups (D0), and administered with the water soluble paclitaxel derivatives of the following formula, paclitaxel, and Abraxane®, respectively once per day for 5 days. The tumor volume was measured 2-3 times per week, the animals were weighed and the data were recorded until day 22 (D22) after grouping.
(§1) The tumor volume (V) was calculated according to the equation: V=½×a×b^2, wherein a and b represent the length and the width, respectively.
T/C (%)=(T−T0)/(C−C0)×100, wherein T and C represent the tumor volume at the end of the experiment, and T0 and C0 represent the tumor volume at the beginning of the experiment.
Data set [3] in a line: In vitro dissociation in blood plasma of rabbit. The note with it: fresh New Zealand white rabbit plasma, 37° C. The data set is classed as in vitro ADME, New Zealand white rabbits. The protocol:
The obtained water soluble taxane derivatives of the following formulae were formulated as 0.2 mg/ml aqueous solutions. […]

Data set [4] concerns human prostate cancer PC-3. The data set is described as follows: Inhibitory activity of cabazitaxel derivatives on subcutaneously xenografted tumor PC-3 in nude mice. The note with it: D0 IV; for Weight change (%) D6: nude mice; for T/C (%) D20 / Tumor volume (mm^3) (D20) / Tumor inhibitory percent (%) D20 / Tumor volume (mm^3) (D0): PC-3 xenograft in nude mice; for Tumor inhibitory percent (%) D20: P = 0.000 vs control; for Tumor volume (mm^3) (D0): baseline at grouping (D0).
From the text: Purpose: to evaluate and compare the inhibitory activity of the water soluble cabazitaxel derivatives and cabazitaxel on subcutaneously xenografted tumor of human prostate cancer PC-3 in nude mice.
Human prostate cancer PC-3 cells were subcutaneously inoculated into nude mice. After the tumor volume reached 100-150 mm^3, the animals were randomly divided into several groups, and administered with the water soluble cabazitaxel derivatives of the following formula and cabazitaxel, respectively once on the same day (D0). The tumor volume was measured 2-3 times per week, the animals were weighed and the data were recorded until day 20 (D20) after grouping.
as §1
T/C (%)=(T−T0)/(C−C0)×100, wherein T and C represent the tumor volume at the end of the experiment; and T0 and C0 represent the tumor volume at the beginning of the experiment.

Turning to `CC(=O)O[C@H]1C(=O)[C@@]2(C)[C@H]([C@H](OC(=O)c3ccccc3)[C@]3(O)C[C@H](OC(=O)[C@H](OC(=O)[C@H](F)CCN(C)C)[C@@H](NC(=O)c4ccccc4)c4ccccc4)C(C)=C1C3(C)C)[C@]1(OC(C)=O)CO[C@@H]1C[C@@H]2O.CS(=O)(=O)O` [Compound C1, 2′-O-[4-N,N-dimethylamino-2(R)-fluorobutyryl]paclitaxel methanesulfonate], in data set [1], the “Sampling time/Dissociation percent (%) 2 min” value is on record as 64.3%, the “Sampling time/Dissociation percent (%) 5 min” value is 97.0% and the “Sampling time/Dissociation percent (%) 10 min” value is on record as 100%. In addition, in data set [2], the “Body weight change (%) D4” value was −5.9%. In addition, the “T/C (%) D22” value in data set [2] (SK-OV-3 xenograft in nude mice) is listed as −63%. For the same compound, in data set [2] (baseline at grouping (D0), SK-OV-3 xenograft in nude mice), the “Tumor volume (mm^3) (D0)” value stood at 133.6 ± 9.5 mm^3. Moreover, in data set [3], the “Sampling time/Dissociation percent (%) 2 min” value was 77.2%, the “Sampling time/Dissociation percent (%) 5 min” value was found to be 98.4% and the “Sampling time/Dissociation percent (%) 10 min” value amounted to 100%.
Consider `CC(=O)O[C@H]1C(=O)[C@@]2(C)[C@H]([C@H](OC(=O)c3ccccc3)[C@]3(O)C[C@H](OC(=O)[C@H](OC(=O)[C@@H](F)CCN(C)C)[C@@H](NC(=O)c4ccccc4)c4ccccc4)C(C)=C1C3(C)C)[C@]1(OC(C)=O)CO[C@@H]1C[C@@H]2O.CS(=O)(=O)O` [Compound C2, 2′-O-[4-N,N-dimethylamino-2(S)-fluorobutyryl]paclitaxel methanesulfonate], for which, in data set [1], the “Sampling time/Dissociation percent (%) 2 min” value was determined as 62.8%, the “Sampling time/Dissociation percent (%) 5 min” value is on record as 96.5% and the “Sampling time/Dissociation percent (%) 10 min” value came to 100%. Besides, the “Body weight change (%) D4” value in data set [2] is −5.8%. In data set [2] (SK-OV-3 xenograft in nude mice), the “T/C (%) D22” value is −61% and the “Tumor volume (mm^3) (D22)” value was found to be 51.2 ± 11.2 mm^3. Moreover, in data set [3], the “Sampling time/Dissociation percent (%) 2 min” value turned out to be 69.7%, the “Sampling time/Dissociation percent (%) 5 min” value is recorded as 98.1% and the “Sampling time/Dissociation percent (%) 10 min” value was found to be 100%.
For `CC(=O)O[C@H]1C(=O)[C@@]2(C)[C@H]([C@H](OC(=O)c3ccccc3)[C@]3(O)C[C@H](OC(=O)[C@H](OC(=O)C(F)CCN(C)C)[C@@H](NC(=O)c4ccccc4)c4ccccc4)C(C)=C1C3(C)C)[C@]1(OC(C)=O)CO[C@@H]1C[C@@H]2O.CS(=O)(=O)O` (stereo partly drawn) [Compound C3, 2′-O-[4-N,N-dimethylamino-2(R,S)-fluorobutyryl]paclitaxel methanesulfonate], in data set [1], the “Sampling time/Dissociation percent (%) 2 min” value came to 63.7%, the “Sampling time/Dissociation percent (%) 5 min” value is recorded as 96.8% and the “Sampling time/Dissociation percent (%) 10 min” value is reported as 100%. The “Body weight change (%) D4” value in data set [2] was −6.0%. In data set [2] (SK-OV-3 xenograft in nude mice), the “T/C (%) D22” value is reported as −64% and the “Tumor volume (mm^3) (D22)” value stood at 50.6 ± 9.7 mm^3. In addition, in data set [3], the “Sampling time/Dissociation percent (%) 2 min” value is recorded as 76.5%, the “Sampling time/Dissociation percent (%) 5 min” value stood at 94.6% and the “Sampling time/Dissociation percent (%) 10 min” value was found to be 100%.
On to `CO[C@H]1C(=O)[C@]2(C)[C@@H](OC)C[C@H]3OC[C@@]3(OC(C)=O)[C@H]2[C@H](OC(=O)c2ccccc2)[C@]2(O)C[C@H](OC(=O)[C@H](OC(=O)[C@H](F)CCN(C)C)[C@@H](NC(=O)OC(C)(C)C)c3ccccc3)C(C)=C1C2(C)C.CS(=O)(=O)O` [Compound C7, 2′-O-[4-N,N-dimethylamino-2(R)-fluorobutyryl]cabazitaxel methanesulfonate], for which, in data set [4] (13 mg/kg), the “Weight change (%) D6” value is −14.2%, the “T/C (%) D20” value was −67%, the “Tumor volume (mm^3) (D20)” value is 31.5 ± 11.8 mm^3 and the “Tumor inhibitory percent (%) D20” value is on record as 154%. Further, in data set [4] (13 mg/kg), the “Tumor volume (mm^3) (D0)” value worked out at 111.5 ± 2.2 mm^3. Further, in data set [1], the “Sampling time/Dissociation percent (%) 2 min” value is 49.7%, the “Sampling time/Dissociation percent (%) 5 min” value came out at 88.9% and the “Sampling time/Dissociation percent (%) 10 min” value came to 100%. Also, in data set [3], the “Sampling time/Dissociation percent (%) 2 min” value was 78.4%, the “Sampling time/Dissociation percent (%) 5 min” value turned out to be 94.8% and the “Sampling time/Dissociation percent (%) 10 min” value stood at 100%.
As to `CO[C@H]1C(=O)[C@]2(C)[C@@H](OC)C[C@H]3OC[C@@]3(OC(C)=O)[C@H]2[C@H](OC(=O)c2ccccc2)[C@]2(O)C[C@H](OC(=O)[C@H](OC(=O)[C@@H](F)CCN(C)C)[C@@H](NC(=O)OC(C)(C)C)c3ccccc3)C(C)=C1C2(C)C.CS(=O)(=O)O` [Compound C8, 2′-O-[4-N,N-dimethylamino-2(S)-fluorobutyryl]cabazitaxel methanesulfonate], in data set [4] (13 mg/kg), the “Weight change (%) D6” value is given as −14.4%, the “T/C (%) D20” value is listed as −66%, the “Tumor volume (mm^3) (D20)” value is recorded as 32.1 ± 12.1 mm^3 and the “Tumor inhibitory percent (%) D20” value worked out at 151%. Also, the “Tumor volume (mm^3) (D0)” value in data set [4] (13 mg/kg) was determined as 111.9 ± 2.0 mm^3. Also, in data set [1], the “Sampling time/Dissociation percent (%) 2 min” value came out at 49.4%, the “Sampling time/Dissociation percent (%) 5 min” value is listed as 88.4% and the “Sampling time/Dissociation percent (%) 10 min” value stood at 100%. For the same compound, in data set [3], the “Sampling time/Dissociation percent (%) 2 min” value is 85.6%, the “Sampling time/Dissociation percent (%) 5 min” value is 94.5% and the “Sampling time/Dissociation percent (%) 10 min” value is 100%.
As for `CCN(C)CC[C@@H](F)C(=O)O[C@@H](C(=O)O[C@H]1C[C@@]2(O)[C@@H](OC(=O)c3ccccc3)[C@@H]3[C@]4(OC(C)=O)CO[C@@H]4C[C@H](OC)[C@@]3(C)C(=O)[C@H](OC)C(=C1C)C2(C)C)[C@@H](NC(=O)OC(C)(C)C)c1ccccc1.O=C(O)/C=C\C(=O)O` [Compound C32, 2′-O-[4-N-methyl-N-ethylamino-2(R)-fluorobutyryl]cabazitaxel maleate], in data set [4] (13 mg/kg), the “Weight change (%) D6” value is listed as −14.7%, the “T/C (%) D20” value is reported as −56%, the “Tumor volume (mm^3) (D20)” value came to 35.8 ± 12.7 mm^3 and the “Tumor inhibitory percent (%) D20” value is recorded as 128%. Also, the “Tumor volume (mm^3) (D0)” value in data set [4] (13 mg/kg) is listed as 112.4 ± 3.0 mm^3.
Turning to `CCN(CC)CC[C@@H](F)C(=O)O[C@@H](C(=O)O[C@H]1C[C@@]2(O)[C@@H](OC(=O)c3ccccc3)[C@@H]3[C@]4(OC(C)=O)CO[C@@H]4C[C@H](OC)[C@@]3(C)C(=O)[C@H](OC)C(=C1C)C2(C)C)[C@@H](NC(=O)OC(C)(C)C)c1ccccc1.CS(=O)(=O)O` [Compound C33, 2′-O-[4-N,N-diethylamino-2(R)-fluorobutyryl]cabazitaxel methanesulfonate], in data set [4] (13 mg/kg), the “Weight change (%) D6” value was −15.1%, the “T/C (%) D20” value is listed as −50%, the “Tumor volume (mm^3) (D20)” value is 38.6 ± 13.4 mm^3 and the “Tumor inhibitory percent (%) D20” value was determined as 114%. Further, the “Tumor volume (mm^3) (D0)” value in data set [4] (13 mg/kg) worked out at 112.0 ± 2.4 mm^3.
For `CO[C@H]1C(=O)[C@]2(C)[C@@H](OC)C[C@H]3OC[C@@]3(OC(C)=O)[C@H]2[C@H](OC(=O)c2ccccc2)[C@]2(O)C[C@H](OC(=O)[C@H](OC(=O)[C@H](F)CCN(C)C(C)C)[C@@H](NC(=O)OC(C)(C)C)c3ccccc3)C(C)=C1C2(C)C.Cl` [Compound C34, 2′-O-[4-N-methyl-N-isopropylamino-2(R)-fluorobutyryl]cabazitaxel hydrochloride], in data set [4] (13 mg/kg), the “T/C (%) D20” value is −45%, the “Tumor volume (mm^3) (D20)” value is 42.8 ± 11.9 mm^3, the “Tumor inhibitory percent (%) D20” value was 101% and the “Tumor volume (mm^3) (D0)” value is 111.7 ± 3.2 mm^3.
Consider `CO[C@H]1C(=O)[C@]2(C)[C@@H](OC)C[C@H]3OC[C@@]3(OC(C)=O)[C@H]2[C@H](OC(=O)c2ccccc2)[C@]2(O)C[C@H](OC(=O)[C@H](OC(=O)[C@@H](CCN(C)C)C(F)(F)F)[C@@H](NC(=O)OC(C)(C)C)c3ccccc3)C(C)=C1C2(C)C.CS(=O)(=O)O` [Compound C35, 2′-O-[4-N,N-dimethylamino-2(R)-2-trifluoromethylbutyryl]cabazitaxel methanesulfonate], for which, in data set [4] (13 mg/kg), the “Weight change (%) D6” value is recorded as −15.8%, the “T/C (%) D20” value is −46%, the “Tumor volume (mm^3) (D20)” value was 42.3 ± 12.6 mm^3 and the “Tumor inhibitory percent (%) D20” value was 105%. In data set [4] (13 mg/kg), the “Tumor volume (mm^3) (D0)” value was 110.2 ± 4.6 mm^3.
As for `CO[C@H]1C(=O)[C@]2(C)[C@@H](OC)C[C@H]3OC[C@@]3(OC(C)=O)[C@H]2[C@H](OC(=O)c2ccccc2)[C@]2(O)C[C@H](OC(=O)[C@H](OC(=O)[C@@H](CCN(C)C)C(F)F)[C@@H](NC(=O)OC(C)(C)C)c3ccccc3)C(C)=C1C2(C)C.Cc1ccc(S(=O)(=O)O)cc1` [Compound C36, 2′-O-[4-N,N-dimethylamino-2(R)-2-difluoromethylbutyryl]cabazitaxel p-toluene sulfonate], in data set [4] (13 mg/kg), the “T/C (%) D20” value was −37% and the “Tumor inhibitory percent (%) D20” value is reported as 85%.
On to `CO[C@H]1C(=O)[C@]2(C)[C@@H](OC)C[C@H]3OC[C@@]3(OC(C)=O)[C@H]2[C@H](OC(=O)c2ccccc2)[C@]2(O)C[C@H](OC(=O)[C@H](O)[C@@H](NC(=O)OC(C)(C)C)c3ccccc3)C(C)=C1C2(C)C` [cabazitaxel, reference compound], for which, in data set [4] (7 mg/kg), the “Weight change (%) D6” value is recorded as −13.8%, the “T/C (%) D20” value is reported as −27%, the “Tumor volume (mm^3) (D20)” value was determined as 79.9 ± 24.8 mm^3 and the “Tumor inhibitory percent (%) D20” value came to 127%. The “Tumor volume (mm^3) (D0)” value in data set [4] (7 mg/kg) came to 111.7 ± 1.8 mm^3.
